Measurements published in ChEMBL document CHEMBL5042527, “Neochrysosporazines: Precursor-Directed Biosynthesis Defines a Marine-Derived Fungal Natural Product P-Glycoprotein Inhibitory Pharmacophore” (J Med Chem, 2022).

Tests used:
[1] = Cytotoxicity against human […] cells overexpressing P-glycoprotein measured after 48 hrs by MTT assay; format: functional, cell-based
[2] = Metabolic stability of the compound in human SW620/AD300 cells assessed as production of metabolite -Deacetylchrysosporazine J at 2.5 uM for 2 to 48 hrs; format: ADME, cell-based; conditions: sw620/ad300, 2.5 µM, time 2-48 hrs
[3] = Metabolic stability of the compound in human SW620/AD300 cells assessed as production of metabolite -Deacetylchrysosporazine C at 2.5 uM for 2 to 48 hrs; format: ADME, cell-based; conditions: sw620/ad300, 2.5 µM, time 2-48 hrs
[4] = Metabolic stability of the compound in human SW620/AD300 cells assessed as production of metabolite -Deacetylchrysosporazine B at 2.5 uM for 2 to 48 hrs; format: ADME, cell-based; conditions: sw620/ad300, 2.5 µM, time 2-48 hrs
[5] = Metabolic stability of the compound in human SW620/AD300 cells assessed as production of metabolite -Deacetylchrysosporazine F at 2.5 uM for 2 to 48 hrs; format: ADME, cell-based; conditions: sw620/ad300, 2.5 µM, time 2-48 hrs

SMILES	IC50 [1]	further results
COc1c2c(cc3c1[C@H](c1ccccc1)[C@H]1C(=O)N4C[C@H](Cc5ccccc5)N(C(C)=O)C[C@@H]4[C@@H]31)OCO2	> 30 µM	Stability [2]: Stable
COc1cc(C[C@H]2CN3C(=O)/C(=C/c4ccccc4)[C@H](c4cc(OC)c5c(c4)OCO5)[C@H]3CN2C(C)=O)cc2c1OCO2	> 30 µM	
COc1cc([C@H]2/C(=C\c3ccccc3)C(=O)N3C[C@H](Cc4ccccc4)N(C(C)=O)C[C@H]23)cc2c1OCO2	> 30 µM	
COc1cc([C@@H]2[C@H]3CN(C(C)=O)[C@@H](Cc4ccccc4)CN3C(=O)[C@@]23O[C@H]3c2ccccc2)cc2c1OCO2	> 30 µM	
COc1c2c(cc3c1[C@H](c1ccccc1)[C@@]1(O)C(=O)N4C[C@H](Cc5ccccc5)N(C(C)=O)C[C@@H]4[C@@H]31)OCO2	> 30 µM	
COc1cc(C[C@H]2CN3C(=O)[C@@]4(O[C@H]4c4ccccc4)[C@H](c4cc(OC)c5c(c4)OCO5)[C@H]3CN2C(C)=O)cc2c1OCO2	> 30 µM	
COc1cc([C@H]2c3cccnc3C(=O)N3C[C@@H](C(=O)c4ccccc4)N(C(C)=O)C[C@H]23)cc2c1OCO2	> 30 µM	
COc1cc([C@H]2c3cnccc3C(=O)N3C=CN(C(C)=O)C[C@H]23)cc2c1OCO2	> 30 µM	
COc1cc(C[C@H]2CN(C(C)=O)[C@@H](Cc3ccccc3)CN2C(=O)/C=C/c2ccccc2)cc2c1OCO2	> 30 µM	
COc1c2c(cc3c1[C@H](c1ccccc1)[C@H]1C(=O)N4C[C@H](Cc5ccccc5)NC[C@@H]4[C@@H]31)OCO2	> 30 µM	
COC1=C[C@]2(C[C@H]3CN(C(C)=O)[C@@H](Cc4ccccc4)CN3C2=O)OC1=O	> 30 µM	
COc1cc([C@H]2c3ccccc3C(=O)N3C[C@H](Cc4ccccc4)N(C(C)=O)C[C@H]23)cc2c1OCO2	> 30 µM	Stability [3]: Stable
COc1cc([C@H]2c3ncccc3C(=O)N3C[C@H](Cc4ccccc4)N(C(C)=O)C[C@H]23)cc2c1OCO2	> 30 µM	
COc1cc(C[C@H]2CN3C(=O)[C@]4(O)[C@@H](c5ccccc5)c5c(cc6c(c5OC)OCO6)[C@@H]4[C@H]3CN2C(C)=O)cc2c1OCO2	> 30 µM	
COc1cc([C@H]2c3cnccc3C(=O)N3C[C@H](C(=O)c4ccccc4)NC[C@H]23)cc2c1OCO2	> 30 µM	
COc1cc(C[C@H]2CN(C(C)=O)[C@@H](Cc3ccccc3)CN2C(=O)c2ccncc2)cc2c1OCO2	> 30 µM	
COc1cc([C@H]2c3ncccc3C(=O)N3C[C@H](C(=O)c4ccccc4)N(C(C)=O)C[C@H]23)cc2c1OCO2	> 30 µM	
COc1cc(/C=C2/C(=O)N3C[C@H](Cc4ccccc4)N(C(C)=O)C[C@@H]3[C@H]2c2cc(OC)c3c(c2)OCO3)ccc1O	> 30 µM	
COc1cc([C@H]2c3cnccc3C(=O)N3C[C@@H](C(=O)c4ccccc4)N(C(C)=O)C[C@H]23)cc2c1OCO2	> 30 µM	
CC(=O)N1C[C@H](Cc2ccccc2)N(C(=O)c2ccccc2)C[C@@H]1Cc1ccccc1	> 30 µM	
COc1cc(/C=C2/C(=O)N3C[C@H](Cc4cc(OC)c5c(c4)OCO5)N(C(C)=O)C[C@@H]3[C@H]2c2cc(OC)c3c(c2)OCO3)ccc1O	> 30 µM	
COc1cc([C@H]2c3cccnc3C(=O)N3C[C@@H](C(=O)c4ccccc4)NC[C@H]23)cc2c1OCO2	> 30 µM	
COc1cc([C@H]2c3ccccc3C(=O)N3C[C@H](C(=O)c4ccccc4)N(C(C)=O)C[C@H]23)cc2c1OCO2	> 30 µM	Stability [4]: Stable
CC(=O)N1C[C@H](Cc2ccccc2)N(C(=O)/C=C/c2ccccc2)C[C@@H]1Cc1ccccc1	> 30 µM	
COc1cc([C@H]2c3ccccc3C(=O)N3C[C@@H](C(=O)c4ccccc4)N(C(C)=O)C[C@H]23)cc(OC)c1O	> 30 µM	
COc1cc([C@H]2c3cccnc3C(=O)N3C=CN(C(C)=O)C[C@H]23)cc2c1OCO2	> 30 µM	
COc1cc(C[C@H]2CN(C(C)=O)[C@@H](Cc3ccccc3)CN2C(=O)c2cccnc2)cc2c1OCO2	> 30 µM	

SMILES	IC50 [1]	further results
COc1cc(C[C@H]2CN3C[C@@H]4[C@@H](c5ccccc5)c5c(cc6c(c5OC)OCO6)[C@@H]4[C@H]3CN2)cc2c1OCO2	> 30 µM	
COc1cc(/C=C/C(=O)N2C[C@H](Cc3cc(OC)c4c(c3)OCO4)N(C(C)=O)C[C@@H]2Cc2cc(OC)c3c(c2)OCO3)ccc1O	> 30 µM	
COc1cc([C@H]2c3cccnc3C(=O)N3C[C@H](C(=O)c4ccccc4)NC[C@H]23)cc2c1OCO2	> 30 µM	
COc1cc([C@H]2c3ccccc3C(=O)N3C[C@H](C(=O)c4ccccc4)N(C(C)=O)C[C@H]23)cc(OC)c1O	> 30 µM	
C=C(c1ccccc1)[C@H]1CN2C(=O)c3ncccc3[C@H](c3cc(OC)c4c(c3)OCO4)[C@H]2CN1	> 30 µM	
COc1cc([C@H]2c3ncccc3C(=O)N3C=CN(C(C)=O)C[C@H]23)cc2c1OCO2	> 30 µM	
COc1cc(C[C@H]2CN3C(=O)/C(=C/c4ccc(O)cc4)[C@H](c4cc(OC)c5c(c4)OCO5)[C@H]3CN2C(C)=O)cc2c1OCO2	> 30 µM	
COc1cc([C@H]2c3cnccc3C(=O)N3C[C@H](C(=O)c4ccccc4)N(C(C)=O)C[C@H]23)cc2c1OCO2	> 30 µM	
COc1cc([C@H]2c3cccnc3C(=O)N3C[C@H](C(=O)c4ccccc4)N(C(C)=O)C[C@H]23)cc2c1OCO2	> 30 µM	
CC(=O)N1C[C@H](Cc2cc(O)c3c(c2)OCO3)N(C(=O)c2ccccc2)C[C@@H]1Cc1ccccc1	> 30 µM	
COc1cc([C@H]2c3ccncc3C(=O)N3C[C@H](Cc4ccccc4)N(C(C)=O)C[C@H]23)cc2c1OCO2	> 30 µM	
COc1cc([C@H]2c3cccnc3C(=O)N3C[C@H](Cc4ccccc4)N(C(C)=O)C[C@H]23)cc2c1OCO2	> 30 µM	
COc1cc(C[C@H]2CN(C(C)=O)[C@@H](Cc3ccccc3)CN2C(=O)c2ccccc2)cc(OC)c1O	> 30 µM	
COc1cc([C@H]2c3ccncc3C(=O)N3C=CN(C(C)=O)C[C@H]23)cc2c1OCO2	> 30 µM	
COc1cc([C@H]2c3cnccc3C(=O)N3C[C@H](Cc4ccccc4)N(C(C)=O)C[C@H]23)cc2c1OCO2	> 30 µM	
COc1cc([C@H]2c3cnccc3C(=O)N3C[C@@H](C(=O)c4ccccc4)NC[C@H]23)cc2c1OCO2	> 30 µM	
COc1cc([C@H]2c3ccccc3C(=O)N3C=CN(C(C)=O)C[C@H]23)cc2c1OCO2	> 30 µM	
C=C(c1ccccc1)[C@H]1CN2C(=O)c3ccncc3[C@H](c3cc(OC)c4c(c3)OCO4)[C@H]2CN1	> 30 µM	
C=C(c1ccccc1)[C@H]1CN2C(=O)c3ccccc3[C@H](c3cc(OC)c4c(c3)OCO4)[C@H]2CN1	> 30 µM	
COc1cc(C[C@H]2CN3C(=O)[C@@H]4[C@@H](c5ccccc5)c5c(cc6c(c5OC)OCO6)[C@@H]4[C@H]3CN2C(C)=O)cc2c1OCO2	> 30 µM	Stability [5]: Stable
COc1cc([C@H]2c3ccccc3C(=O)N3C[C@H](C(=O)c4ccccc4)NC[C@H]23)cc2c1OCO2	> 30 µM	
COc1cc(C[C@H]2CN(C(C)=O)[C@@H](Cc3ccccc3)CN2)cc(OC)c1O	> 30 µM	
COc1cc([C@H]2/C(=C\c3ccc(O)cc3)C(=O)N3C[C@H](Cc4ccccc4)N(C(C)=O)C[C@H]23)cc2c1OCO2	> 30 µM	
COc1cc(C[C@H]2CN(C(=O)/C=C/c3ccccc3)[C@@H](Cc3cc(OC)c4c(c3)OCO4)CN2C(C)=O)cc2c1OCO2	> 30 µM	
COc1cc(C[C@H]2CN(C(C)=O)[C@@H](Cc3ccccc3)CN2C(=O)c2ccccn2)cc2c1OCO2	> 30 µM	
COc1cc(C[C@H]2CN(C(=O)c3ccccc3)[C@@H](Cc3cc(OC)c4c(c3)OCO4)CN2C(C)=O)cc2c1OCO2	> 30 µM	
